# Values quoted from earlier work as cited in US4698328A, “Method of increasing bone mass” (The General Hospital Corporation, priority 1986, dated 1987).
# Settings: osteoporosis in humans; Reeve et al. 1980
substance,measurement,value
"hPTH (1-34): fragment of human parathyroid hormone: first thirty-four amino acid residues (SVSEIQLMHNLGKHLNSMERVEWLRKKLQDVHNF; Parathyroid hormone; UniProt P01270 32-65, looked up, fragment)",axial trabecular bone,considerable increase
same,"calcium retention, and hence total bone mass",improved in only about half of these patients
